Data reported in article PMC9750872, “Ras-mutant cancers are sensitive to small molecule inhibition of V-type ATPases in mice” (Nature biotechnology, 2022).
Where two headings read alike, the source gives them in different places.

Experiments:
[1] = system: panel of 53 cancer cell lines; test: 249C sensitivity in a panel of 53 cancer cell lines; assay type: cell-based; conditions: Homo sapiens, read-out: median IC50
Procedure: Figure 1: Optimization of Potency and Drug Properties of Small Molecule Inhibitors of Ras- and Raf-mutant Cells using Viability Screens. (A) Cell viability screen of ~300 small molecules in A549 (KRASG12S), LOX IMVI (BRAFV600E), and MelJuso (HRASG13D and NRASQ61L). Cells were treated with vehicle DMSO or increasing concentrations of small molecules in triplicate for 72 h and ATP content/viability was measured using CellTiter-Glo Luminescent Cell Viability Assay. The results shown for all cell viability figures are representative of at least two independent experiments. […] (F) Quantitative whole proteome analysis of the effects of small molecule treatment by mass spectrometry. A549 cells were treated with DMSO or 68 (30 μM), 226C (1μM) or 249C (1μM) for 48 h prior to analysis of proteomes with TMT labeling followed by quantification relative to the DMSO control. […]
The Cancer Cell Line Encyclopedia (CCLE, http://www.broadinstitute.org/ccle) was used to download somatic mutation data for over 1000 cancer cell lines [(CCLE_DepMap_18q3_maf_20180718.txt) from CCLE at https://depmap.org/portal/download/ (2018)][61]. We filtered the data to retain only mutations (single nucleotide variants, SNVs, and insertion deletions, indels) detected in 53 cell lines that were included in our MTS assays (Fig. 1). […] Genes with multiple mutations in the same cell line were only counted once. […]

[2] = target: T1, human H subunit (ATP6V1H) (Homo sapiens, UniProt Q9UI12); test: Bio-layer interferometry (BLI); assay type: binding; conditions: biotinylated-249C on streptavidin sensors
T1 construct: GST (cleaved yes); host or cells: Rosetta2(DE3)pLysS (E. coli)
Source text: Figure 4. […] (A) Model of the reversible assembly of V-ATPase. Cytosolic V1 subunits are depicted in blue and membrane Vo subunits in purple. Upon V-ATPase assembly, ATP is hydrolyzed to ADP accompanied by proton (H^+) pumping and luminal acidification (decrease in pH) (Created with BioRender). […] The amount of subunit B2 present in the membrane fraction indicates the amount of assembled V-ATPase. A representative Western blot is presented. […] Cells were mechanically lysed, and a fraction containing FITC-Dextran-loaded lysosomes was isolated by sedimentation centrifugation. Fluorescence was measured over time to assess pH-dependent quenching following addition of 1 mM magnesium-ATP (predetermined). […] Representative of 5 individual experiments with n = 3 for each is presented (mean ± SD) (D) Mammalian V-ATPase activity measured in the absence and presence of 1 μM 249C and 1 μM BafA1. Data shown are mean ± SD; n = 3. Bio-layer inferometry (BLI) of (E) the entire mammalian V-ATPase complex (association protein concentrations: 30, 60, 120, 240 nM) and (F) the individual human H subunit (ATP6V1H) (association protein concentrations: 16,800 and 21,000 nM) against biotinylated-249C loaded onto streptavidin sensor tips. A reference sensor was subtracted from the signal to blank the system. The ForteBio Octet® Software on the BLI system was used to calculate Kd s. […]

MEFs KRAS G13D = test: Cell proliferation of Ras-less MEFs expressing human KRAS/BRAF; conditions: Mus musculus
Procedure: Cell proliferation assays of stable cell lines treated with V-ATPase inhibitors 249C and BafA1, HCQ analog (DC661), KRASG12C inhibitor (AMG510) and autophagy inducer (CMA). For each bar, n = 3. Representative of 3 biological replicates (mean ± SD). Two-sided t-test with no adjustments for multiple comparisons.
(§1) Logarithmically growing cells were plated in antibiotic-free medium supplemented with 2% fetal bovine serum at a density of 5,000 cells per well. The next day, cells were treated in triplicates with increasing doses of in-house small molecule inhibitor drugs and a DMSO vehicle control for 3 days and subsequently assessed for cell viability by measurement of ATP with CellTiter-Glo Luminescent Cell Viability Assay (Promega). Signal intensity was read on a Glomax™ 96 Microplate Luminometer (Promega) with GLOMAX software (version 1.9.3) and percent cell survival was calculated based on the reading of vehicle control cells set as 100% using Excel (2012) and GraphPad Prism (version 6)Each compound was tested a minimum of 2 times with n = 3. All cell proliferation assays (cancer cell lines or MEFs) were done in a similar way.

MEFs KRAS G12C = test: as above; conditions: Mus musculus
Procedure: as §1

T1 sequence (Q9UI12 whole entry): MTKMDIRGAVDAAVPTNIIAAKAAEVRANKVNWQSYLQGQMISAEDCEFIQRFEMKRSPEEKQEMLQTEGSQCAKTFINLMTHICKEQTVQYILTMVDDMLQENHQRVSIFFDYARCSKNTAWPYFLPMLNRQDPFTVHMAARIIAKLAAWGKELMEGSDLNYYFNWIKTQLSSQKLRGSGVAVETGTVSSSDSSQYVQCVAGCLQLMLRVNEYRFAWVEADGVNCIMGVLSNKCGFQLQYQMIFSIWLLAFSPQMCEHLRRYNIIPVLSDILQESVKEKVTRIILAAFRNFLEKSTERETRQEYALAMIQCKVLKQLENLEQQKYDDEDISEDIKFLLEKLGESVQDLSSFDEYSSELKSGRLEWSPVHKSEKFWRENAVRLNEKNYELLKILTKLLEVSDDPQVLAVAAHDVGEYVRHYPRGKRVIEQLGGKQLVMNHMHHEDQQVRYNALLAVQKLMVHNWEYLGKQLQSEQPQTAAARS

`CN1CCOC(CNC(=O)C2(C)C(c3ccc(Cl)o3)C(c3ccc(F)cc3F)=NN2c2ccc(F)cc2F)C1` (centres unmarked) [Compound 249C] showed an IC50 ([1]; KRAS/HRAS/NRAS/BRAF mutant cells) of 65 nM, an IC50 ([1]; cells with no mutations in these genes) of 365 nM and a Kd [2] of 501 nM. It also gave an IC50 (MEFs KRAS G13D) of 70 nM and an IC50 (MEFs KRAS G12C) of 440 nM.
